“Also recorded” adds a separate entry of the source.
What was measured:
SKM9-2 antibody = test: Western blot reactivity of human HEG1 fragments expressed in ACC-MESO-1 with SKM9-2 antibody; type: binding, mouse; settings: for Binding to SKM9-2 antibody (positive/negative): Western blot of cell lysate
Protocol: In this Example, the mesothelioma cell line ACC-MESO-1 was allowed to express a human HEG1 fragment with the endogenous HEG1 of ACC-MESO-1 knocked down, and the reactivity with the SKM9-2 antibody was examined. Subsequently, the reactivity with the antibody was tested for the epitope region through alanine scanning, and key amino acids for binding to the antibody were determined.
Gene transfer was performed with HEG1 siRNA (H9106) (SEQ ID NOs: 40, 41) and human HEG1 for the mesothelioma cell line ACC-MESO-1, and the reactivity of the SKM9-2 was examined through Western blot analysis. A full length protein (HEG1 full length) or a fragment (HEG1 3 kb, HEG1 2 kb, or HEG1 1 kb) of the human HEG1 was used. The full length human HEG1 protein, a protein having the amino acid sequence set forth in SEQ ID NO: 35, was obtained through inserting a base sequence set forth in SEQ ID NO: 34 into pFLAG-CMV1 (Sigma-Aldrich Japan K.K.) to obtain a plasmid, transforming the plasmid, and allowing the mesothelioma cell line to express the plasmid. Fragment HEG1 3 kb was obtained through inserting a fragment corresponding to a sequence from position 285, leucine, to position 1387, phenylalanine, of SEQ ID NO: 35 into pFLAG-CMV1 (Sigma-Aldrich Japan K.K.) in an in-frame manner, and allowing the mesothelioma cell line to express the resultant. HEG1 2 kb and HEG1 1 kb were obtained through allowing the mesothelioma cell line to express products similarly obtained from a fragment corresponding to a sequence from position 677, leucine, to position 1387, phenylalanine, of SEQ ID NO: 35 and a fragment corresponding to a sequence from position 992, valine, to position 1387, phenylalanine, of SEQ ID NO: 35, respectively. Each cell lysate was analyzed through Western blot with the SKM9-2 antibody.
Further, the region in exon 7 of HEG1 was analyzed in detail. […]

[1] = biological target: recombinant human intelectin-1 (Homo sapiens, UniProt Q8WWA0, V109D); test: Biacore inhibition of intelectin binding to diol structure; settings: inhibition of intelectin (0.5 μg/mL) binding
Protocol: The binding between intelectin and the diol SEPHAROSE® (crosslinked, beaded-form of agarose) beads was inhibited in the presence of another compound with diol structure. An experiment was conducted in which binding of recombinant human intelectin-1 to a sensor chip including 3-Amino-1-propanediol fixed thereto via amino groups was measured by using a Biacore (GE Healthcare Bio-Sciences AB) in the presence of various compounds serially diluted, where intelectin was used with a final concentration of 0.5 μg/mL, and 10 mM HEPES buffer (pH 7.0) containing 1 mM CaCl2), 150 mM NaCl, and 0.03% TWEEN® 20 (polyethylene glycol sorbitan monolaurate, polyoxyethylenesorbitan monolaurate) was used as buffer for measurement, and the binding rate of intelectin was determined for each sample as the degree of binding of intelectin measured for a sample without addition of compound was defined as a binding rate of 100%.

NCI-H2452 cells = test: Cell proliferation after HEG1 knock-down, NCI-H2452; type: cell-based; settings: NCI-H2452, another mesothelioma cell line
HEK-293T cells = test: Cell proliferation after HEG1 siRNA, HEK-293T; type: cell-based; settings: which do not express HEG1

Sequence of recombinant human intelectin-1 (Q8WWA0 19-298 V109D): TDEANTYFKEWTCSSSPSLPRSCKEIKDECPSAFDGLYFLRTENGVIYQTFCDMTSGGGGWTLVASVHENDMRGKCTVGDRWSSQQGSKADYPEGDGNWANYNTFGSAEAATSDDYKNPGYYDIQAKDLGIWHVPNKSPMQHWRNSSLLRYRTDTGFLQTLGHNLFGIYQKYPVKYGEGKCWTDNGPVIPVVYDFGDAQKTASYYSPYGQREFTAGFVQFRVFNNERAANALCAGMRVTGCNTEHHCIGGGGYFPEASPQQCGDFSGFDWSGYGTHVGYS

With “7.6231: SEQ ID NO: 49 (SKSPSLVSLPTE) bonded to SLURPgpi (GGSKSPSLVSLPTEGG; 7.6231 - SLURPgpi (7.6231))” the “Binding to SKM9-2 antibody (positive/negative)” value (SKM9-2 antibody) was “positive”, the “Binding to SKM9-2 antibody (positive/negative)” value (SKM9-2 antibody; listed as fragment 7.6231) was “positive signal” and the “Reaction with SKM9-2 antibody after neuraminidase treatment” value (SKM9-2 antibody; lysate treated with neuraminidase, listed as fragment 7.6231) was “disappeared; also recorded: does not react”.
With `CCC(O)CO` (stereo not shown) [1,2-Butanediol] the IC50 [1] was ≤ 1000 µM.
In the case of `CC(O)CO` (stereo not shown) [1,2-Propanediol], the IC50 [1] is reported as 900 µM.
Work on `C[C@@H](O)CO` [(R)-1,2-Propanediol] yielded an IC50 [1] of 1000 µM.
For `O=C[C@H](O)[C@H](O)[C@H](O)CO` [D-Ribose], the IC50 [1] was ≤ 1000 µM.
`OCC(O)CO` [Glycerol] was tested, and the IC50 [1] was ≤ 1000 µM.
With `O=C1O[C@H]([C@@H](O)CO)C(O)=C1O` [L-Ascorbic acid] the IC50 [1] was ≤ 1000 µM.
With `O=C[C@@H](O)[C@@H](O)[C@@H](O)CO` [L-Ribose] the IC50 [1] was ≤ 1000 µM.
`CCCC(=O)OCC(O)CO` (stereo not shown) [Monobutyrin] showed an IC50 [1] of 800 µM.
With “H2674: siRNA for human HEG1; sense SEQ ID NO: 25 CCUAUAGCCGUACAGACUACA, antisense SEQ ID NO: 26; called HEG1 siRNA in b178 (antisense UAGUCUGUACGGCUAUAGGGC; listed as RNA, chemistry not given here)” the Cell proliferation (NCI-H2452 cells) was “suppressed cell proliferation” and the Cell proliferation (HEK-293T cells) was “not affected”.
